According to patent publication US20140213575A1, “6H-Thieno[3,2-f][1,2,4]triazolo[4,3-a][1,4]diazepines” (BAYER INTELLECTUAL PROPERTY GMBH, priority 2011, published 2014):

Tests used:
BRD4(1) = target: T1, BRD4(1) (Homo sapiens, UniProt O60885); experiment: Binding assay BRD4/acetylated peptide H4 (TR-FRET/HTRF protein-protein interaction assay); conditions: inhibition of interaction BRD4(1) / acetylated histone H4 peptide, TR-FRET
T1 construct: BRD4(1) (amino acids 44-168); made in house; host or cells: E. coli
Description: Binding Assay BRD4/Acetylated Peptide H4 (“PRQ”)
To assess the BRD4 binding strength of the substances described in this application, their capacity for dose-dependent inhibition of the interaction between BRD4 and acetylated histone H4 was quantified.
For this purpose, a time-resolved fluorescence resonance energy transfer (TR-FRET) assay was used, which measures the binding between N-terminally His6-tagged BRD4(1) (amino acids 44-168) and a synthetic acetylated histone H4 (Ac-H4) peptide with the sequence GRGK(Ac)GGK(Ac)GLGK(Ac)GGAK(Ac)RHGSGSK-biotin. The recombinant BRD4 protein (produced in-house) was expressed in E. coli and was purified by (Ni-NTA) affinity chromatography and (Sephadex G-75) size-exclusion chromatography. The Ac-H4 peptide can be purchased for example from Biosyntan (Berlin, Germany).
In the assay, typically 11 different concentrations of each substance (0.1 nM, 0.33 nM, 1.1 nM, 3.8 nM, 13 nM, 44 nM, 0.15 μM, 0.51 μM, 1.7 μM, 5.9 μM and 20 μM) were measured as duplicates on the same microtitre plate. For this, 100-fold concentrated solutions in DMSO were prepared by serial dilutions (1:3.4) of a 2 mM stock solution in a clear, 384-well microtitre plate (Greiner Bio-One, Frickenhausen, Germany). From this, 50 nl was transferred to a black assay plate (Greiner Bio-One, Frickenhausen, Germany). The assay was started by supplying 2 μl of a 2.5-fold concentrated BRD4 solution (usually 10 to 50 nM final concentration in the 5 μl of the reaction volume) in aqueous assay buffer [50 mM HEPES pH 7.5, 50 mM sodium chloride (NaCl), 0.25 mM CHAPS and 0.05% serum albumin (BSA)] to the substances in the assay plate. This was followed by a 10-minute incubation step at 22° C. for the pre-equilibration of putative complexes between BRD4 and the substances.
The mixture was then incubated in the dark for one hour at 22° C. and then overnight at 4° C. The formation of BRD4/Ac-H4 complexes was determined by measuring the resonance energy transfer from the streptavidin-Eu-cryptate to the anti-6His-XL665 antibody that is present in the reaction. For this, the fluorescence emissions at 620 nm and 665 nm were measured after excitation at 330-350 nm in a TR-FRET measuring instrument, e.g. a Rubystar or Pherastar (both from BMG Lab Technologies, Offenburg, Germany) or a Viewlux (Perkin-Elmer). The ratio of the emissions at 665 nm and at […] was taken as an indicator of the amount of BRD4/Ac-H4 complexes formed.
The data obtained (ratio) were normalized, wherein 0% inhibition corresponded to the mean value from the measured values of a set of controls (usually 32 data points), in which all reagents were contained. 50 nl DMSO (100%) was used instead of test substances. Inhibition of 100% corresponded to the mean value from the measured values of a set of controls (usually 32 data points), in which all reagents except BRD4 were contained. The IC50 value was determined by regression analysis based on a 4-parameter equation (minimum, maximum, IC50, Hill; Y=Max+(Min−Max)/(1+(X/IC50)^Hill)) using Bayer's own analysis software.

B16F10 cells = experiment: Cellular proliferation assay (alamarBlue) B16F10; format: cell-based; conditions: Mus musculus, B16-F10, 96 hours, read-out: Melanoma B16F10 IC50
Experimental: (§1) In accordance with the invention, the ability of the substances to inhibit the proliferation of various cell lines was determined. Cell viability was determined by means of the alamarBlue® reagent (Invitrogen). […] After incubation overnight at 37° C., the fluorescence values were determined (CI values). […] Then the fluorescence values were determined (CO values).
(§2) The substances were investigated in the cell lines in Table 1, which for example represent the stated indications: […]

MDA-MB-231 cells = experiment: Cellular proliferation assay (alamarBlue) MDA-MB-231; format: cell-based; conditions: Homo sapiens, 96 hours, read-out: Breast MDA-MB-231 IC50
Experimental: as §1, §2

MCF-7 cells = experiment: Cellular proliferation assay (alamarBlue) MCF-7; format: cell-based; conditions: Homo sapiens, MCF7, 96 hours, read-out: Breast MCF-7 IC50
Experimental: as §1, §2

VCaP cells = experiment: Cellular proliferation assay (alamarBlue) VCaP; format: cell-based; conditions: Homo sapiens, 168 hours, read-out: Prostate VCaP IC50
Experimental: as §1, §2

LAPC-4 cells = experiment: Cellular proliferation assay (alamarBlue) LAPC-4; format: cell-based; conditions: Homo sapiens, LAPC4, 168 hours, read-out: Prostate LAPC-4 IC50
Experimental: as §1, §2

MOLP-8 cells = experiment: Cellular proliferation assay (alamarBlue) MOLP-8; format: cell-based; conditions: Homo sapiens, 120 hours, read-out: Multiple myeloma MOLP-8 IC50
Experimental: as §1, §2

LNCaP cells = experiment: Cellular proliferation assay (alamarBlue) LNCaP; format: cell-based; conditions: Homo sapiens, 168 hours, read-out: Prostate LNCaP IC50
Experimental: as §1, §2

MOLM-13 cells = experiment: Cellular proliferation assay (alamarBlue) MOLM-13; format: cell-based; conditions: Homo sapiens, 96 hours, read-out: Leukaemia MOLM-13 IC50
Experimental: as §1, §2

HeLa-MaTu cells = experiment: Cellular proliferation assay (alamarBlue) HeLa-MaTu; format: cell-based; conditions: 96 hours, read-out: Cervix HeLa-MaTu IC50
Experimental: as §1, §2

Row | Structure (SMILES) | IC50 (BRD4(1)) [nM] | IC50 (B16F10 cells) [nM] | IC50 (MDA-MB-231 cells) [nM] | IC50 (MCF-7 cells) [nM] | IC50 (VCaP cells) [nM] | IC50 (LAPC-4 cells) [nM] | IC50 (MOLP-8 cells) [nM] | IC50 (LNCaP cells) [nM] | IC50 (MOLM-13 cells) [nM] | IC50 (HeLa-MaTu cells) [nM]
1 | Cc1sc2c(c1C)C(c1ccc(Cl)cc1)=N[C@@H](CC(=O)NC1C[C@H]3CCC[C@@H](C1)N3)c1nnc(C)n1-2 (stereo partly drawn) [Example 4, N-[(1R,5S)-9-Azabicyclo[3.3.1]non-3-yl]-2-[(S)-4-(4-chlorophenyl)-2,3,9-trimethyl-6H-thieno[3,2-f][1,2,4]triazolo[4,3-a][1,4]diazepin-6-yl]acetamide] | 15 | 1050 | 604 | 300 | 71 | 228 | 240 | 353 | 57 | 753
2 | Cc1sc2c(c1C)C(c1ccc(Cl)cc1)=N[C@@H](CC(=O)N1CC3CCC1CC3)c1nnc(C)n1-2 [Example 8, (S)-1-(2-Azabicyclo[2,2,2]oct-2-yl)-2-[(6S)-4-(4-chlorophenyl)-2,3,9-trimethyl-6H-thieno[3,2-j][1,2,4]triazolo[4,3-a][1,4]diazepin-6-yl]ethanone] | 84 | 297 | 363 | – | – | 133 | – | – | 1060 | –
3 | Cc1sc2c(c1C)C(c1ccc(Cl)cc1)=N[C@@H](CC(=O)N1CCC3(CC1)COC3)c1nnc(C)n1-2 [Example 7] | 32 | 48 | 69 | 59 | 35 | 32 | 51 | 102 | 68 | 167
4 | Cc1sc2c(c1C)C(c1ccc(Cl)cc1)=N[C@@H](CC(=O)N1CCC3(COC3)C1)c1nnc(C)n1-2 [Example 6, 2-[(S)-4-(4-Chlorophenyl)-2,3,9-trimethyl-6H-thieno[3,2-f][1,2,4]triazolo[4,3-a][1,4]diazepin-6-yl]-1-(2-oxa-6-azaspiro[3.4]oct-6-yl)ethan-1-one] | 29 | 87 | 122 | 98 | 65 | 72 | 110 | 36 | 131 | 251
5 | Cc1sc2c(c1C)C(c1ccc(Cl)cc1)=N[C@@H](CC(=O)N1CC3CCC(C1)O3)c1nnc(C)n1-2 [Example 5, 2-[(S)-4-(4-Chlorophenyl)-2,3,9-trimethyl-6H-thieno[3,2-f][1,2,4]triazolo[4,3-a][1,4]diazepin-6-yl]-1-(8-oxa-3-azabicyclo[3.2.1]oct-3-yl)ethan-1-one] | 78 | 91 | 138 | 93 | 67 | 65 | 120 | 40 | 127 | 331
6 | Cc1sc2c(c1C)C(c1ccc(Cl)cc1)=N[C@@H](CC(=O)N1C3CCC1CC3)c1nnc(C)n1-2 [Example 9, (S)-1-(7-Azabicyclo[2.2.1]hept-7-yl)-2-[(6S)-4-(4-chlorophenyl)-2,3,9-trimethyl-6H-thieno[3,2-f][1,2,4]triazolo[4,3-a][1,4]diazepin-6-yl]ethanone] | 75 | 414 | 291 | – | – | 88 | – | – | 838 | –
7 | Cc1sc2c(c1C)C(c1ccc(Cl)cc1)=N[C@@H](CC(=O)NC1C[C@H]3CCC[C@@H](C1)N3C(=O)OC(C)(C)C)c1nnc(C)n1-2 (stereo partly drawn) [Example 3, (1R,5S)-tert-Butyl-3-({2-[(S)-4-(4-chlorophenyl)-2,3,9-trimethyl-6H-thieno[3,2-f][1,2,4]triazolo[4,3-a][1,4]diazepin-6-yl]acetyl}amino)-9-azabicyclo[3.3.1]nonane-9-carboxylate] | 240 | 29 | 129 | 20 | 65 | 41 | 170 | 17 | 83 | 40
